Consider 23 compounds from patent US20230117592A1 (SRI International, priority 2019, published 2023).

Assay [1] addresses T1, 5-LOX (Homo sapiens, UniProt P09917).
T1 sequence (P09917 1-674): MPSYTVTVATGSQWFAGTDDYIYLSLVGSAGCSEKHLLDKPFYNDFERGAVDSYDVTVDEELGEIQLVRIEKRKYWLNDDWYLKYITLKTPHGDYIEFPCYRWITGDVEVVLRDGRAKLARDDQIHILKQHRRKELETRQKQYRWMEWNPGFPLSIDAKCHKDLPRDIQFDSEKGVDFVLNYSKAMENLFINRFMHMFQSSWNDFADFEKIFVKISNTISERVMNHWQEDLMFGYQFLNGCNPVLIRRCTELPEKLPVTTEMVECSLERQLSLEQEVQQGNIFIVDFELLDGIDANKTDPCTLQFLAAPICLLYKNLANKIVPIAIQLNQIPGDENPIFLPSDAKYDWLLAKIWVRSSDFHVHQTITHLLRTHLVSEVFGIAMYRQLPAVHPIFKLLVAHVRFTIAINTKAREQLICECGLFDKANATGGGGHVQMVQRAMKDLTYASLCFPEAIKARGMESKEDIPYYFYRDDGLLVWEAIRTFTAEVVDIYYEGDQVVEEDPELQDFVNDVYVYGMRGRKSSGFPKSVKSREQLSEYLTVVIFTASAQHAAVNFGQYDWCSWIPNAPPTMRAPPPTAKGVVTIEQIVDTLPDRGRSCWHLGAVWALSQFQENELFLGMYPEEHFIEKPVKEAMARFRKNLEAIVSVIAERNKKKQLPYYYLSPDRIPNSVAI
Description: 5-LOX fluorescent assay (in vitro lipoxygenase inhibition). The format is biochemical. On the procedure:
5-LOX FI assay Fluorescent Assay
The enzyme assay (100 μL) contained 50 mM Tris, pH 7.5, 0.1 mM EDTA, 0.3 mM CaCl2, 20 μM AA, 100 μM ATP, 1 μM DHR123, and recombinant 5-LOX cell lysate (0.5 μL/100 μL). Inhibitors (dissolved in DMSO) were plated at 1 μL into 96-well assay microplates followed by a 40 μL addition of a solution containing 5-LOX enzyme. Enzyme was pre-incubated with compounds for 15 mins. The assay was initiated by the addition of a 40 μL substrate solution containing AA and ATP, and 20 μL addition of a solution containing DHR123. […] Percent inhibition was calculated for each compound dose for IC50 curve fitting using 4 Parameter Logistic Model or Sigmoidal Dose-Response Model.

In assay [2] the target is T2, 12-LOX (Homo sapiens, UniProt P18054).
T2 sequence (P18054 1-663): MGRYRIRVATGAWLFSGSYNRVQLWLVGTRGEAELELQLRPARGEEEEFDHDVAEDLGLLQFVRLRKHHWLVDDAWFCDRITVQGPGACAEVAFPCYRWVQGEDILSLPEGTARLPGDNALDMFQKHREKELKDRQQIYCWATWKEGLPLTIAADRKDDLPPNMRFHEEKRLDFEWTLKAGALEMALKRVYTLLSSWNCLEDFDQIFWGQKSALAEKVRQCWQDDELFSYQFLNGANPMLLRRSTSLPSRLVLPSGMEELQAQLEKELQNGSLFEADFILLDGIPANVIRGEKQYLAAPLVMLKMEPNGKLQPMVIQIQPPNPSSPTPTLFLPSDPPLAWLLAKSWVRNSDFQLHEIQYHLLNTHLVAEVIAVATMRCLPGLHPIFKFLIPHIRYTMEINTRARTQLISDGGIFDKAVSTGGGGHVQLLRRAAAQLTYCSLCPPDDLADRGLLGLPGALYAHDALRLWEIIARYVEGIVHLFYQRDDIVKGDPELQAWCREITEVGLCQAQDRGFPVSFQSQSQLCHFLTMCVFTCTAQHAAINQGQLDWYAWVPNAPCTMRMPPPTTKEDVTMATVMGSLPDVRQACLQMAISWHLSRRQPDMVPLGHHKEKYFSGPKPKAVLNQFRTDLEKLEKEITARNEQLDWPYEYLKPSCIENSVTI
Kind of assay: 12-LOX fluorescent assay (in vitro lipoxygenase inhibition). The format is biochemical. As to the method: 12-LOX/15-LOX Fluorescent Assay
The enzyme assay (100 ul) contained 50 mM Tris, pH 7.5, 0.05% Tween-20, 20 μM AA/LA, 1 μM DHR123, and 100 nM recombinant 12-LOX enzyme/50 nM recombinant 15-LOX enzyme. Inhibitors (dissolved in DMSO) were plated at 1 μL into 96-well assay microplates followed by a 40 μL addition of a solution containing 12-LOX/15-LOX enzyme. Enzyme was pre-incubated with compounds for 15 mins. The assay was initiated by the addition of a 40 μL substrate solution containing AA/LA, and 20μL addition of a solution containing DHR123. […] Percent inhibition was calculated for each compound dose for IC50 curve fitting using 4 Parameter Logistic Model or Sigmoidal Dose-Response Model.

The mark [3] stands for this setting: recombinant 5-LOX cell lysate, 20 μM AA, DHR123 fluorescence, several values in a cell = repeat determinations, read-out: IC50 (μM) values for in vitro lipoxygenase inhibition, 5-LOX.
Where [4] appears, read: 100 nM recombinant 12-LOX, 20 μM AA, DHR123 fluorescence, several values in a cell = repeat determinations, read-out: IC50 (μM) values for in vitro lipoxygenase inhibition, 12-LOX.

“And” between values parts separate entries of the source, which are not always exact repeats. Identical values can stand only once. Like-named read-outs stand apart in the source and are kept apart here.

Take `OCCc1ccccc1-c1ccc(Nc2ccccc2)cc1NCCn1cncn1` [SS20308-0149-01, 2-(2′-(2-(1H-1,2,4-triazol-1-yl)ethylamino)-4′-(phenylamino)biphenyl-2-yl)ethanol]: the half-inhibitory concentration (IC50) in assay [1] (setting [3]) was determined as 0.63 µM; in assay [2] (setting [4]) it was 0.3 µM.
In the case of `c1ccc(Nc2ccc(NCCCn3cncn3)c(-c3ccccc3)c2)cc1` [SS20308-0151-01, N^2-(3-(1H-1,2,4-triazol-1-yl)propyl)-N^5-phenylbiphenyl-2,5-diamine], the concentration for half-maximal inhibition (IC50) was 0.07 µM and 0.04 µM in assay [1] (setting [3]); 0.02 µM in assay [2].
In the case of `c1ccc(Nc2cccc(-c3ccccc3)c2NCCn2cncn2)cc1` [SS20308-0153-01, N^2-(2-(1H-1,2,4-triazol-1-yl)ethyl)-N^3-phenylbiphenyl-2,3-diamine], the half-inhibitory concentration (IC50) in assay [1] (setting [3]) worked out at 0.71 µM; in assay [2] (setting [4]) it was 0.2 µM.
Regarding `Fc1ccc(Nc2ccc(NCCn3cncn3)c(-c3ccccc3)c2)c(Cl)c1` [SS20308-0165-01, N^2-(2-(1H-1,2,4-triazol-1-yl)ethyl)-N^5-(2-chloro-4-fluorophenyl)biphenyl-2,5-diamine], the IC50 in assay [1] (setting [3]) is 0.03 µM and 0.23 µM; in assay [2] it was 0.08 µM and 0.06 µM.
`c1ccc(Nc2ccc(-c3cccc4c3NCC4)c(NCCn3cncn3)c2)cc1` [SS20308-0166-01, N^3-(2-(1H-1,2,4-triazol-1-yl)ethyl)-4-(indolin-7-yl)-N^1-phenylbenzene-1,3-diamine]: the concentration for half-maximal inhibition (IC50) in assay [1] (setting [3]) came out at 0.14 µM; in assay [2] (setting [4]), 0.07 µM.
Taken in the same sequence, the figures for `CN(C)CCCc1c(Nc2ccccc2)cccc1-c1cccc2c1NCC2` [SS20308-0172-01, 2-(3-(dimethylamino)propyl)-3-(indolin-7-yl)-N-phenylaniline] were 0.23 µM and 0.36 µM.
The like results for `c1ccc(Nc2cnc(-c3ccccc3)c(NCCn3cncn3)c2)cc1` [SS20308-0173-01, N^3-(2-(1H-1,2,4-triazol-1-yl)ethyl)-N^5,2-diphenylpyridine-3,5-diamine] were, in that order, 2.22 µM and 1.09 µM.
Taken in the same sequence, the figures for `c1ccc(Nc2ccc(-c3ccccc3)c(NCCn3cncn3)n2)cc1` [SS20308-0175-01, N^2-(2-(1H-1,2,4-triazol-1-yl)ethyl)-N^6,3-diphenylpyridine-2,6-diamine] were 0.32 µM and 0.26 µM.
In the case of `Cn1cncc1-c1ccc(Nc2ccccc2)cc1NCCn1cncn1` [SS20308-0177-01, N^3-(2-(1H-1,2,4-triazol-1-yl)ethyl)-4-(1-methyl-1H-imidazol-5-yl)-N^1-phenylbenzene-1,3-diamine], the results for the concentration for half-maximal inhibition (IC50) in assay [1] (setting [3]) and in assay [2] (setting [4]) were 1.45 µM and 0.72 µM, respectively.
Regarding `c1ccc(Nc2ccc(-c3ccccc3)c(NCCCn3cncn3)c2)cc1` [SS20308-0178-01, N^2-(3-(1H-1,2,4-triazol-1-yl)propyl)-N^4-phenylbiphenyl-2,4-diamine], the concentration for half-maximal inhibition (IC50) in assay [1] is 150 nM and 210 nM (2×) and 90 nM; in assay [2], 0.09 µM and 0.11 µM and 0.07 µM and 0.14 µM.
For `Fc1ccc(Nc2ccc(-c3ccc(Cl)cc3)c(NCCn3cncn3)c2)cc1` [SS20308-0181-01, N^2-(2-(1H-1,2,4-triazol-1-yl)ethyl)-4′-chloro-N^4-(4-fluorophenyl)biphenyl-2,4-diamine], the IC50 in assay [1] (setting [3]) and in assay [2] (setting [4]) was 0.16 µM each time.
On to `CN(C)CC1(CNc2cc(Nc3ccc(F)cc3)ccc2-c2ccccc2)COC1` [SS20308-0184-01, N^2-((3-((dimethylamino)methyl)oxetan-3-yl)methyl)-N^4-(4-fluorophenyl)biphenyl-2,4-diamine], for which the IC50 in assay [1] (setting [3]) was determined as 0.16 µM; in assay [2] (setting [4]), 0.18 µM.
With `c1ccc(Nc2ccc(-c3ccn[nH]3)c(NCCn3cncn3)c2)cc1` [SS20308-0189-01, N^3-(2-(1H-1,2,4-triazol-1-yl)ethyl)-N^1-phenyl-4-(1H-pyrazol-5-yl)benzene-1,3-diamine], the IC50 in assay [1] (setting [3]) is 0.17 µM and 0.28 µM; in assay [2] (setting [4]), 0.08 µM and 0.15 µM.
As for `Cn1nccc1-c1ccc(Nc2ccccc2)cc1NCCn1cncn1` [SS20308-0190-01, N^3-(2-(1H-1,2,4-triazol-1-yl)ethyl)-4-(1-methyl-1H-pyrazol-5-yl)-N^1-phenylbenzene-1,3-diamine], the IC50 amounted to 1.35 µM in assay [1] (setting [3]) and 0.93 µM in assay [2] (setting [4]).
Turning to `Cn1cc(-c2ccc(Nc3ccccc3)cc2NCCn2cncn2)cn1` [SS20308-0191-01, N^3-(2-(1H-1,2,4-triazol-1-yl)ethyl)-4-(1-methyl-1H-pyrazol-4-yl)-N^1-phenylbenzene-1,3-diamine], the concentration for half-maximal inhibition (IC50) was found to be 4.18 µM in assay [1] (setting [3]) and 1.96 µM in assay [2].
For the compound `Cc1noc(C)c1-c1ccc(Nc2ccccc2)cc1NCCn1cncn1` [SS20308-0192-01, N^3-(2-(1H-1,2,4-triazol-1-yl)ethyl)-4-(3,5-dimethylisoxazol-4-yl)-N^1-phenylbenzene-1,3-diamine], the figures for the IC50 in assay [1] (setting [3]) and in assay [2] (setting [4]) were 0.83 µM and 0.59 µM, respectively.
Taken in the same sequence, the figures for `c1ccc(Nc2ccc(-c3cccs3)c(NCCn3cncn3)c2)cc1` [SS20308-0193-01, N^3-(2-(1H-1,2,4-triazol-1-yl)ethyl)-N^1-phenyl-4-(thiophen-2-yl)benzene-1,3-diamine] were 0.28 µM and 0.14 µM.
Taken in the same sequence, the figures for `N#Cc1ccc(-c2ccc(Nc3ccccc3)cc2NCCn2cncn2)s1` [SS20308-0194-01, 5-(2-(2-(1H-1,2,4-triazol-1-yl)ethylamino)-4-(phenylamino)phenyl)thiophene-2-carbonitrile] were 0.19 µM and 0.13 µM.
Taken in the same sequence, the figures for `c1ccc(Nc2ccc(C3CCCO3)c(NCCn3cncn3)c2)cc1` (stereo not shown) [SS20308-0195-01, N^3-(2-(1H-1,2,4-triazol-1-yl)ethyl)-N^1-phenyl-4-(tetrahydrofuran-2-yl)benzene-1,3-diamine] were 0.76 µM and 0.36 µM.
`CN(C)CCCc1ccc(Nc2ccccc2Cl)c(Nc2ccccc2Cl)c1` [SS20308-0198-01, N^1,N^2-bis(2-chlorophenyl)-4-(3-(dimethylamino)propyl)benzene-1,2-diamine]: the concentration for half-maximal inhibition (IC50) in assay [1] (setting [3]) came out at 0.25 µM; in assay [2] (setting [4]), 0.32 µM.
Taken in the same sequence, the figures for `CN(C)CCCc1cc(Nc2ccc(F)cc2Cl)c(F)cc1Nc1ccc(F)cc1Cl` [SS20308-0199-01, N^1,N^4-bis(2-chloro-4-fluorophenyl)-2-(3-(dimethylamino)propyl)-5-fluorobenzene-1,4-diamine] were 0.68 µM and 0.51 µM.
In the case of `c1ccc(-c2ccc(NC3CCCCC3)cc2NCCn2cncn2)cc1` [SS20308-0200-01, N^2-(2-(1H-1,2,4-triazol-1-yl)ethyl)-N^4-cyclohexylbiphenyl-2,4-diamine], the values for the half-maximal inhibitory concentration (IC50) in assay [1] (setting [3]) and in assay [2] (setting [4]) were 0.4 µM and 0.17 µM, respectively.
The like results for `Fc1ccc(Nc2ccc3c(c2)N(CCn2cncn2)CC3)cc1` [SS20308-0201-01, 1-(2-(1H-1,2,4-triazol-1-yl)ethyl)-N-(4-fluorophenyl)indolin-6-amine] were, in that order, 0.19 µM and 0.05 µM.

By IC50 is commonly meant the concentration at which inhibition is half-maximal.
